Experimental data reported in patent US11255806B2, “Interdigitated electrodes for in vitro analysis of cells” (UNIVERSITY OF CENTRAL FLORIDA RESEARCH FOUNDATION, INC., priority 2017, dated 2022).
“And” between values parts separate entries of the source, which are not always exact repeats. Equal values may be shown once.

Tested on: iPSC cardiomyocytes (iCell Cardiomyocytes^2)
Assay: Model drug (norepinephrine) cardiotoxicity experiment: impedance / cell index on nIDEs with cultured iPSC cardiomyocytes
Assay type: cell-based, Human

NC[C@H](O)c1ccc(O)c(O)c1 [norepinephrine]
change of CI and % CI with norepinephrine concentration (0 μM to 250 μM, N=6, FIG. 24): both decrease as the concentration of norepinephrine increases | percent cell index (% CI) (at 256 μm norepinephrine, mean of N=7, 86.91% at 0 μM, FIG. 24): 48.88% | cell index (CI) (at 256 μm norepinephrine, mean of N=7, CI=2.34 at 0 μM, FIG. 23): 1.13 | cellular index (CI) after increased concentrations of norepinephrine (summary statement, concentration not given, decrease from 2.34 / 2.3): 1.13 and 1
